System: virus
Assay: Virus inactivation by BCTP components
Conditions: concentrations equivalent to 11% BCTP
Excerpt: Individual components of nanoemulsions (e.g. in an immunogenic composition of the present invention) can function both to inactivate a pathogen as well as to contribute to the non-toxicity of the emulsions. […] Adding the oil phase to the detergent and solvent markedly reduces the toxicity of these agents in tissue culture at the same concentrations. […] Furthermore, when all the components of BCTP are combined in one composition but are not in a nanoemulsion structure, the mixture is not as effective at inactivating a pathogen as when the components are in a nanoemulsion structure.

Substance: TRITON-X100
- ability to inactivate a virus: less ability

Source: patent US12403192B2, “Nanoemulsion compositions for preventing, suppressing or eliminating allergic and inflammatory disease” (priority 2014, dated 2025)
